pIC50: −log10 of the molar value. Activity calls are given as the source filed them. The calls are words filed in the database; no cut-off is given here.
Legend:
[1] = target: T1, Lysine-specific demethylase 2B (Homo sapiens, UniProt Q8NHM5); assay: Inhibition of KDM2B (unknown origin)
T1 sequence (Q8NHM5 whole entry): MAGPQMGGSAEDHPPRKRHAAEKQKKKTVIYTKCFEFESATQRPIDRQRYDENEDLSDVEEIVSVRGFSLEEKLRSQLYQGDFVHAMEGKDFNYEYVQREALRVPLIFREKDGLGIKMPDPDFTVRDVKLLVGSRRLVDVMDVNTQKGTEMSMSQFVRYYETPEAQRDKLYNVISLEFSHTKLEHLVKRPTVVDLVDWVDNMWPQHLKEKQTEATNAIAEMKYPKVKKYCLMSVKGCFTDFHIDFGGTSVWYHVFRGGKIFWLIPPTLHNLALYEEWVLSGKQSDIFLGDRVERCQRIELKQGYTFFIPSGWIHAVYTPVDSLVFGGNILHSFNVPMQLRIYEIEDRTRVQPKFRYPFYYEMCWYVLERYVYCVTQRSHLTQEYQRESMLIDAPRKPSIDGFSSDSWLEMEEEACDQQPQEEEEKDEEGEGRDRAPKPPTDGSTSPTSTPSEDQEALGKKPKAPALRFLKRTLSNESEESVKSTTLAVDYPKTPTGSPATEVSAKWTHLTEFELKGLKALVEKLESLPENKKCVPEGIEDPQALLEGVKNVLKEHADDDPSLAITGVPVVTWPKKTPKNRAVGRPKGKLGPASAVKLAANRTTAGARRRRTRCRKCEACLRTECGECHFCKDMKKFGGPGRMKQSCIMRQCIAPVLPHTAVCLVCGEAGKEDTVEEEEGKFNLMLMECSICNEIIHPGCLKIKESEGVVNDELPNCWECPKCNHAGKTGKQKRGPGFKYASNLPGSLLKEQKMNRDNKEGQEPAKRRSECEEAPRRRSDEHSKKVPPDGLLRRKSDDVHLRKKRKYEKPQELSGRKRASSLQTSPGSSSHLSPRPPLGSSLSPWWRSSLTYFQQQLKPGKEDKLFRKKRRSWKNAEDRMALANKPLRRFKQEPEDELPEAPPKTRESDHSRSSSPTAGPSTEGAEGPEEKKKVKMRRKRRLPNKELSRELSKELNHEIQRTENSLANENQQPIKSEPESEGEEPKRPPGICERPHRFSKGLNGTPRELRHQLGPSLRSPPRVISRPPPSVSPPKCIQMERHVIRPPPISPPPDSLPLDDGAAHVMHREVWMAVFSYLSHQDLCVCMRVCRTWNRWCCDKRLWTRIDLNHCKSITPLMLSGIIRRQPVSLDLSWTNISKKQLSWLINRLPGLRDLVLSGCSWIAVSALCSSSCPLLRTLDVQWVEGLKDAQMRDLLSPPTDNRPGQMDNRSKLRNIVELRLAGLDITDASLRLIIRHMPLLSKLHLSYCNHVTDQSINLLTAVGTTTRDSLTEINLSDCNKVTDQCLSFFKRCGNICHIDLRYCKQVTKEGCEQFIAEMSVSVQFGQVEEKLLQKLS

[2] = target: Voltage-gated inwardly rectifying potassium channel KCNH2 (Homo sapiens, UniProt Q12809); assay: Inhibition of human ERG
[3] = target: ATP-dependent translocase ABCB1 (Homo sapiens, UniProt P08183); assay: Inhibition of MDR1 (unknown origin); assay type: ADME
[4] = target: T2, Lysine-specific demethylase 4D (Homo sapiens, UniProt Q6B0I6); assay: Inhibition of KDM4D (unknown origin)
T2 sequence (Q6B0I6 whole entry): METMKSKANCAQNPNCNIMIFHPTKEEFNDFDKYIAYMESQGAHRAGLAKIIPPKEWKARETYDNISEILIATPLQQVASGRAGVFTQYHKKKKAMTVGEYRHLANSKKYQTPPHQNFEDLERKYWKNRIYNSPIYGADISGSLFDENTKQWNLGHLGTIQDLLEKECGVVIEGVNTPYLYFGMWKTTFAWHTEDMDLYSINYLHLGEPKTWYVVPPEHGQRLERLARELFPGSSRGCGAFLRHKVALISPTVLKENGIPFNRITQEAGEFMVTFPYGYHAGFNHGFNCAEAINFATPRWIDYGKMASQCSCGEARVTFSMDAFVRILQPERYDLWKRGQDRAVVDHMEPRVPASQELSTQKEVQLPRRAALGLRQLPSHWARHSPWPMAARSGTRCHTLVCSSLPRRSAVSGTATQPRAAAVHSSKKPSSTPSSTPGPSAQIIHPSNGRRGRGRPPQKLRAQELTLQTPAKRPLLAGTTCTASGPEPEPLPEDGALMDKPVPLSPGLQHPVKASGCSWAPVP

Mus musculus = assay: In vivo inhibition of KDM5 in nude mouse xenografted with human MCF7 cells assessed as increase in H3K4me3 level in tumor at 75 mg/kg, po qd for 5 days measured up to 24 hrs post last dose by Western blot analysis; assay type: functional, organism-based
[5] = target: T3, Lysine-specific demethylase 4C (Homo sapiens, UniProt Q9H3R0); assay: Inhibition of KDM4C (unknown origin) preincubated with enzyme
T3 sequence (Q9H3R0 whole entry): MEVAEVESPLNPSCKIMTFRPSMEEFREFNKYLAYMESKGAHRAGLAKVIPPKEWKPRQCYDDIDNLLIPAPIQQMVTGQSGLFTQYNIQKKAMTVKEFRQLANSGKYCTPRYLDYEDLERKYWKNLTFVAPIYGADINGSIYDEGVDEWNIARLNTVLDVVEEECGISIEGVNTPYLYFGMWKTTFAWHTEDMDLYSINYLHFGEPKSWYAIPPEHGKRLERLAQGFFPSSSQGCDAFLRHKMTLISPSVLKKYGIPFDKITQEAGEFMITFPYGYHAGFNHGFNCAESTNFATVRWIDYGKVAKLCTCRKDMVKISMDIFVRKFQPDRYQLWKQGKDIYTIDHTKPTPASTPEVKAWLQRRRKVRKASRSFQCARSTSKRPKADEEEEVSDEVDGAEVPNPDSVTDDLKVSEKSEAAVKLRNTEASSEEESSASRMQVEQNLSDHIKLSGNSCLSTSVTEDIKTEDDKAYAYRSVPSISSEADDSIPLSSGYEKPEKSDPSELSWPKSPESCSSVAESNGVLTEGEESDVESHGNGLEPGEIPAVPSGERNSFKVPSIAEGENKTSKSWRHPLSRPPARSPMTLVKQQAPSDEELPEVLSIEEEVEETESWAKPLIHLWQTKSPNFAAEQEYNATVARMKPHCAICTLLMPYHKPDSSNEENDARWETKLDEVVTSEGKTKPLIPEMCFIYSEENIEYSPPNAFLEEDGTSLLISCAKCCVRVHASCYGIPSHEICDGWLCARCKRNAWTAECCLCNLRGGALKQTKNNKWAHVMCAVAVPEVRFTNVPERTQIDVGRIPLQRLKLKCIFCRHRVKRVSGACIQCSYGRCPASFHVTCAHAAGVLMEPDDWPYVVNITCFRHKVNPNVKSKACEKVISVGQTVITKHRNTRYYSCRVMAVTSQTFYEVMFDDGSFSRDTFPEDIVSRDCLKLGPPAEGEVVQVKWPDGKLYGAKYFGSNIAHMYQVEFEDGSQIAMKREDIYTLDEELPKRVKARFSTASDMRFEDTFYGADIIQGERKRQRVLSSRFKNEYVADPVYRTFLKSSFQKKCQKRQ

Chain of Voltage-gated inwardly rectifying potassium channel KCNH2 (Q12809 whole entry): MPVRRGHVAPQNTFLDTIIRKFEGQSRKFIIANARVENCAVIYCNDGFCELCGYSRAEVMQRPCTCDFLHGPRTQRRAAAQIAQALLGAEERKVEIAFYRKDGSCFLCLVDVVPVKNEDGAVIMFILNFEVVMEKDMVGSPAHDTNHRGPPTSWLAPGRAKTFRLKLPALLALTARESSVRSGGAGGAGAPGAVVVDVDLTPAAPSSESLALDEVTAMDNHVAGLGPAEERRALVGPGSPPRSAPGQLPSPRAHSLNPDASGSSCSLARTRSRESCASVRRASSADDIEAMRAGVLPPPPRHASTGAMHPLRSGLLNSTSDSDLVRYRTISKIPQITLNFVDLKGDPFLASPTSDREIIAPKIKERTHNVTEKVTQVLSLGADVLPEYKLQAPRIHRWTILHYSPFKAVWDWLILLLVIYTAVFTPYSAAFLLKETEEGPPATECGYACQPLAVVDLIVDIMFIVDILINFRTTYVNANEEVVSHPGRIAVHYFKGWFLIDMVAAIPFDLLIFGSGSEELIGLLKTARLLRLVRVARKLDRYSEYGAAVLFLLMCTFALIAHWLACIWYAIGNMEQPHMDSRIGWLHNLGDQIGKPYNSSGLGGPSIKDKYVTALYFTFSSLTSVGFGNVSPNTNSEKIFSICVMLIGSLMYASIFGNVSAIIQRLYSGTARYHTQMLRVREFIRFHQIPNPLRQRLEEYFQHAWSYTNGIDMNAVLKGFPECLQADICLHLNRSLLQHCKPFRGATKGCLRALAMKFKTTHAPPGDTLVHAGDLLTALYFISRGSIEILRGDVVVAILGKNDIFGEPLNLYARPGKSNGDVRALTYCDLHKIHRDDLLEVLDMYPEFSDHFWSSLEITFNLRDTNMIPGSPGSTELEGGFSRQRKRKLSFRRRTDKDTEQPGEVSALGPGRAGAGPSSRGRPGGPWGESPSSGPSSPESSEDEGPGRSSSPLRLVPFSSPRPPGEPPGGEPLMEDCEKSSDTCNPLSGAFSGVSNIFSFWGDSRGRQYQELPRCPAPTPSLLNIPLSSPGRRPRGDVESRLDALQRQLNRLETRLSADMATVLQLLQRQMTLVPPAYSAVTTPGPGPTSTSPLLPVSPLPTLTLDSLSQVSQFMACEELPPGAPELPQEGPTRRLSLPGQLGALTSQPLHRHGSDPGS
Chain of ATP-dependent translocase ABCB1 (P08183 whole entry): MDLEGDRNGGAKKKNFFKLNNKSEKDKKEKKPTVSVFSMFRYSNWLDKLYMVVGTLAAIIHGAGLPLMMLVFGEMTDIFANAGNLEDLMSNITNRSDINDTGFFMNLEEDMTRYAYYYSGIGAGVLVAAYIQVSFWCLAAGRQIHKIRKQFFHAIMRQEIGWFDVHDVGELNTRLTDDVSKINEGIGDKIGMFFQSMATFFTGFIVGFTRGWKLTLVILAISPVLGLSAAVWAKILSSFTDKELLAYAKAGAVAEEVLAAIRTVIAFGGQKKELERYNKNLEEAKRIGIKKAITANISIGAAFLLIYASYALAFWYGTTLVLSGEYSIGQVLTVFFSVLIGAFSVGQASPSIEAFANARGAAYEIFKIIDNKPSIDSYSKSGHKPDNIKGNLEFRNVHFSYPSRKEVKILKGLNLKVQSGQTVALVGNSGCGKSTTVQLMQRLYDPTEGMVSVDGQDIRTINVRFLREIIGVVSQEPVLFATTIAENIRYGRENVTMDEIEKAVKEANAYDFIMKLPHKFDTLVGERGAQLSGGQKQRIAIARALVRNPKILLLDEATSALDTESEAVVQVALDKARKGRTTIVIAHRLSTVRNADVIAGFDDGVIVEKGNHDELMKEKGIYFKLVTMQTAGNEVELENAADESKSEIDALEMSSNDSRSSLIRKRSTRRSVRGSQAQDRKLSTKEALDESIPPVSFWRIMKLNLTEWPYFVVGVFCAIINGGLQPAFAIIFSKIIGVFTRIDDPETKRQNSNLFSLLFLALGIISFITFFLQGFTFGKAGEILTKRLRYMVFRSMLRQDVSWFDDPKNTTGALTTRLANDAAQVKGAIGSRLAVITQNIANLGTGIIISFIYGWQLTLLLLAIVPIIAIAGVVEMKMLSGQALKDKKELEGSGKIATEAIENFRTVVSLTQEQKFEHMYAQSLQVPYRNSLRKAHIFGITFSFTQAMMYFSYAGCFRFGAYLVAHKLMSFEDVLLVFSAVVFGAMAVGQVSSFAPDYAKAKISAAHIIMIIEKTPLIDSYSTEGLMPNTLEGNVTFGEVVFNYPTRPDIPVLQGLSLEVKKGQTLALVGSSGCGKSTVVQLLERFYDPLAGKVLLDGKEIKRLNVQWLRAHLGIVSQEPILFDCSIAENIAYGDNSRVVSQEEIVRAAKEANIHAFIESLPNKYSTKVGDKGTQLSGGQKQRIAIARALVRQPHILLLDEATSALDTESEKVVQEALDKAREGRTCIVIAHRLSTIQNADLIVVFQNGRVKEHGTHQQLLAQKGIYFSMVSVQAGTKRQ

## Cc1cc(Cl)ccc1COc1ccnn1-c1cc(C(=O)O)ccn1
[1]
  pIC50: 6.20
[2]
  inhibition (INH): Not Active
[3]
  inhibition (INH): Not Active
[4]
  pIC50: 6.96
Mus musculus
  inhibition: Active
[5]
  pIC50: 7.39 to 7.46

From ChEMBL document CHEMBL4219204, “Structure-based design and discovery of potent and selective KDM5 inhibitors” (Bioorg Med Chem Lett, 2018)
